In brackets after ≈: the same amount, converted by molar mass. Numbered stars: 1 amine (or outer) side, 2 acyl side, 3 side chain; on linkers, the order of the positions; unused ones are H or OH. Bridge positions count the residues as written; N and C are the ends. Square brackets hold non-standard residues; d marks the D form. Peptide text beside a SMILES is read from it. * marks the point of attachment. pTerphenylCO(4''-OnC5H11) = CCCCCOc1ccc(-c2ccc(-c3ccc(C(=O)*)cc3)cc2)cc1; Orn(4R-OH,5R-OH) = O=C([C@H](C[C@@H](O)[C@@H](O)N[*:3])N[*:1])[*:2]; hTyr(3S-OH,4S-OH) = N[C@H](C(=O)O)[C@H](O)[C@@H](O)c1ccc(O)cc1; Pro(3S-OH,4S-Me) = C[C@H]1CN[C@H](C(=O)O)[C@H]1O; Hyp = O=C(O)[C@@H]1C[C@@H](O)CN1
Assays:
[1] = organism: Mus musculus; assay: Hepatotoxicity using inclusion-body formation test in hepatocytes of mice; format: functional, Hepatocyte
[2] = tested on: Mus musculus; assay: In vivo efficacy against Candida albicans CY1002 5E6 cells for systemic candidiasis in mice after iv treatment on day 7; format: functional; conditions: CY1002 5E6, iv, 168 h
[3] = tested on: Mus musculus; assay: In vivo efficacy against Aspergillus fumigatus CF1083 1E4 conidia/g for pulmonary aspergillosis in mice after iv treatment on day 14; format: functional; conditions: 336 h
[4] = tested on: Candida albicans; assay: In vitro antifungal activity against Candida albicans CY1002 using 80 percent serum; format: functional, organism-based
[5] = target: Beta-1,3-glucan synthase (Candida albicans, UniProt O13428); assay: In vitro inhibitory activity against Beta glucan synthase
[6] = tested on: Candida albicans; assay: In vitro antifungal activity against Candida albicans CY1002; format: functional, organism-based
[7] = tested on: Candida albicans; assay: Antifungal activity against Candida albicans KB fluconazole resistant strain.; format: functional
[8] = tested on: Candida tropicalis; assay: Antifungal activity against Candida tropicalis ATCC 13803; format: functional
[9] = tested on: Aspergillus fumigatus; assay: Antifungal activity against Aspergillus fumigatus MTU06002; format: functional
[10] = tested on: Candida albicans; assay: Antifungal activity against Candida albicans ATCC 48130; format: functional
[11] = tested on: Pichia kudriavzevii; assay: Antifungal activity against Candida krusei ATCC 20579; format: functional
[12] = tested on: Nakaseomyces glabratus; assay: Antifungal activity against Candida glabrata ATCC 2001; format: functional
[13] = tested on: Lomentospora prolificans; assay: Antifungal activity against Scedosporium prolificans ATCC 20054; format: functional
[14] = tested on: Scedosporium boydii; assay: Antifungal activity against Scedosporium […] IFM40731N.; format: functional

Chain of Beta-1,3-glucan synthase (O13428 whole entry): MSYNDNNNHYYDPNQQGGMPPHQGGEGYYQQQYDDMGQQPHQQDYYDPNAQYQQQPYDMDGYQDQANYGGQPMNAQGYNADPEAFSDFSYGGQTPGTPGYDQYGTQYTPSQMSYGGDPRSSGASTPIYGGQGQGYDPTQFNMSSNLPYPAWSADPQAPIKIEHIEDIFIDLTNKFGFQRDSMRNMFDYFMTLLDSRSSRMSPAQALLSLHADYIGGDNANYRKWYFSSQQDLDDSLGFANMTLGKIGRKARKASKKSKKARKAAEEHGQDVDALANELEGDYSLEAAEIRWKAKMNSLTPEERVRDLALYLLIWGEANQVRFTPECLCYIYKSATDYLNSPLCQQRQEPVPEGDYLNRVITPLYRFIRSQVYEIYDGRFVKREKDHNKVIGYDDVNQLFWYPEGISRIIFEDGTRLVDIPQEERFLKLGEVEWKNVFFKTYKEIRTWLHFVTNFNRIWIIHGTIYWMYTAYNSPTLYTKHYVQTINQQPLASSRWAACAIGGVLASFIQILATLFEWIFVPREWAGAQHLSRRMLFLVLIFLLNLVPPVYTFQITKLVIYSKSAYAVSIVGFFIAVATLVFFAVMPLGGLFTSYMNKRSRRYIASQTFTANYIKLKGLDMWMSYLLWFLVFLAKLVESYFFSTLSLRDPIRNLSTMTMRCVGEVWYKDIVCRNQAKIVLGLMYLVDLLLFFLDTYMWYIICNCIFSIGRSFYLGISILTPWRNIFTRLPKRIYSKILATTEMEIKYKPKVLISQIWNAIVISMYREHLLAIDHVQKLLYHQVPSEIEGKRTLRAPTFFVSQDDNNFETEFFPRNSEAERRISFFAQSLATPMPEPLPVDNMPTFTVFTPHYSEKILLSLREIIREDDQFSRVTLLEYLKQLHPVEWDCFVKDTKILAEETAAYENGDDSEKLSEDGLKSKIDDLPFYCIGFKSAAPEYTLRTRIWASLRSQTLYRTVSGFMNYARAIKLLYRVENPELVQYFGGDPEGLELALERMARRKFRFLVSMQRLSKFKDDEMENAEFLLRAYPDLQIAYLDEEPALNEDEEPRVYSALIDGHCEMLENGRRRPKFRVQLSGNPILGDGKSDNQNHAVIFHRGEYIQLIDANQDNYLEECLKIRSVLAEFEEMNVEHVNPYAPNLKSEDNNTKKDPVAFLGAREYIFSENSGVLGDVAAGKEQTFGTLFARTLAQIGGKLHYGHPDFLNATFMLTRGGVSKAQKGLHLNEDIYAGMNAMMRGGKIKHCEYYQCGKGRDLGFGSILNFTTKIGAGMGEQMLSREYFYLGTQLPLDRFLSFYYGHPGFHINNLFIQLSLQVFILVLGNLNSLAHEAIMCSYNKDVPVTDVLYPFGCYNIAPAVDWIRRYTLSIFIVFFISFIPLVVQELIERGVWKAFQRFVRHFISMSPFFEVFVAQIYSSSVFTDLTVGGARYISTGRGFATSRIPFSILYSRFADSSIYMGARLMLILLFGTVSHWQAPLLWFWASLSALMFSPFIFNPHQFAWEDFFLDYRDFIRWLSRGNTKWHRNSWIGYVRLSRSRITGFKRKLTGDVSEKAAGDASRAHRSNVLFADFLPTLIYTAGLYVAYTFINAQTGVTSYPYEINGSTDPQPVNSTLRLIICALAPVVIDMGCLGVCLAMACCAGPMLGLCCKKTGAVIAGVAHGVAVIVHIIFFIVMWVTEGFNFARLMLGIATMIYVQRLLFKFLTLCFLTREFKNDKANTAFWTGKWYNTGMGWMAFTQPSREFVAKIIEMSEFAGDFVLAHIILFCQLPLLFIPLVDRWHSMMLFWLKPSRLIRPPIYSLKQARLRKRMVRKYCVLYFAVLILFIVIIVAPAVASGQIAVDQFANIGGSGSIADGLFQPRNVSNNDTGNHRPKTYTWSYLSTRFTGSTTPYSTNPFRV

| Compound | Observed at [1] [µg/mL] | ED50 [2] [mg/kg] | ED50 [3] [mg/kg] | IC50 [4] [µg/mL] | IC50 [5] [nM] | IC50 [6] [µg/mL] | MIC [7] [µg/mL] | MIC [8] [µg/mL] | MIC [9] [µg/mL] | MIC [10] [µg/mL] | MIC [11] [µg/mL] | MIC [12] [µg/mL] | MIC [13] [µg/mL] | MIC [14] [µg/mL] |
| --- | --- | --- | --- | --- | --- | --- | --- | --- | --- | --- | --- | --- | --- | --- |
| CCCCCOc1ccc(-c2ccc(-c3ccc(C(=O)N[C@H]4C[C@@H](O)[C@@H](O)NC(=O)[C@@H]5[C@@H](O)[C@@H](C)CN5C(=O)[C@H]([C@@H](C)O)NC(=O)[C@H]([C@H](O)[C@@H](O)c5ccc(O)cc5)NC(=O)[C@@H]5C[C@@H](O)CN5C(=O)[C@H]([C@@H](C)O)NC4=O)cc3)cc2)cc1 ({pTerphenylCO(4''-OnC5H11)}-[Orn(4R-OH,5R-OH)]T[Hyp][hTyr(3S-OH,4S-OH)]T[Pro(3S-OH,4S-Me)]; lactam 1-C) | 1 | 0.22 |  |  |  |  |  |  |  |  |  |  |  |  |
| CCCCCCCCCCCCC[C@@H]1CC(=O)N[C@@H]([C@@H](C)O)C(=O)N[C@H](C)C(=O)N[C@@H](Cc2ccc(O)cc2)C(=O)N[C@@H](C(C)C)C(=O)N2C[C@H](O)C[C@H]2C(=O)N[C@@H]([C@@H](C)O)C(=O)N[C@@H]([C@@H](C)O)C(=O)N2CC[C@H](O)[C@H]2C(=O)N[C@@H]([C@H](O)CC(N)=O)C(=O)NCC(=O)N[C@@H]([C@@H](C)O)C(=O)N[C@@H](CCCNC(=O)[C@H](CCCN)N(CCN)CCN)C(=O)O1 | 100 | 0.33 | 8.7 | 0.55 (≈ 0.317 µM) | 0.9 | 0.37 (≈ 0.213 µM) |  |  |  |  |  |  |  |  |
| CCCCCCCCCCCCC[C@@H]1CC(=O)N[C@@H]([C@@H](C)O)C(=O)N[C@H](C)C(=O)N[C@@H](Cc2ccc(O)cc2)C(=O)N[C@@H](C(C)C)C(=O)N2C[C@H](O)C[C@H]2C(=O)N[C@@H]([C@@H](C)O)C(=O)N[C@@H]([C@@H](C)O)C(=O)N2CC[C@H](O)[C@H]2C(=O)N[C@@H]([C@H](O)CC(N)=O)C(=O)NCC(=O)N[C@@H]([C@@H](C)O)C(=O)N[C@@H](CCCN(CCCN)C(=O)[C@H](N)CCCN)C(=O)O1 | 30 | 0.05 | 5.2 | 0.27 (≈ 0.158 µM) | 0.83 | 0.37 (≈ 0.217 µM) |  |  |  |  |  |  |  |  |
| CCCCCCCCCCCCC[C@@H]1CC(=O)N[C@@H]([C@@H](C)O)C(=O)N[C@H](C)C(=O)N[C@@H](Cc2ccc(O)cc2)C(=O)N[C@@H](C(C)C)C(=O)N2C[C@H](O)C[C@H]2C(=O)N[C@@H]([C@@H](C)O)C(=O)N[C@@H]([C@@H](C)O)C(=O)N2CC[C@H](O)[C@H]2C(=O)N[C@@H]([C@H](O)CC(N)=O)C(=O)NCC(=O)N[C@@H]([C@@H](C)O)C(=O)N[C@@H](CCCN(CCN)C(=O)[C@H](CCCN)N(CCN)CCN)C(=O)O1 | 100 | 0.08 | 5.2 | 0.24 (≈ 0.135 µM) | 0.2 | 0.31 (≈ 0.174 µM) | 0.35 (≈ 0.197 µM) | 0.62 (≈ 0.349 µM) | 0.34 (≈ 0.191 µM) | 0.37 (≈ 0.208 µM) | 0.28 (≈ 0.158 µM) | 1.3 (≈ 0.732 µM) | 2.2 (≈ 1.24 µM) | 0.35 (≈ 0.197 µM) |
| CCCCCCCCCCCCC[C@@H]1CC(=O)N[C@H]([C@@H](C)O)C(=O)N[C@H](C)C(=O)N[C@@H](Cc2ccc(O)cc2)C(=O)N[C@@H](C(C)C)C(=O)N2C[C@H](O)C[C@H]2C(=O)N[C@H]([C@@H](C)O)C(=O)N[C@@H]([C@@H](C)O)C(=O)N2CC[C@H](O)[C@H]2C(=O)N[C@@H]([C@H](O)CC(N)=O)C(=O)NCC(=O)N[C@H]([C@@H](C)O)C(=O)N[C@@H](CCCN(CCCN)C(=O)[C@H](CCCN)N(CCN)CCN)C(=O)O1 | 100 | 0.08 | 8.6 | 0.31 (≈ 0.173 µM) | 0.28 | 0.45 (≈ 0.251 µM) | 0.35 (≈ 0.195 µM) | 0.63 (≈ 0.352 µM) | 0.37 (≈ 0.207 µM) | 0.41 (≈ 0.229 µM) | 0.31 (≈ 0.173 µM) | 1 (≈ 0.558 µM) | 0.38 (≈ 0.212 µM) | 0.35 (≈ 0.195 µM) |
| CCCCCCCCCCCCC[C@@H]1CC(=O)N[C@H]([C@@H](C)O)C(=O)N[C@H](C)C(=O)N[C@@H](Cc2ccc(O)cc2)C(=O)N[C@@H](C(C)C)C(=O)N2C[C@H](O)C[C@H]2C(=O)N[C@H]([C@@H](C)O)C(=O)N[C@@H]([C@@H](C)O)C(=O)N2CC[C@H](O)[C@H]2C(=O)N[C@@H]([C@H](O)CC(N)=O)C(=O)NCC(=O)N[C@H]([C@@H](C)O)C(=O)N[C@@H](CCCN(CCN)CCN)C(=O)O1 | 10 | 0.05 | 13.3 | 0.42 (≈ 0.259 µM) | 1.4 | 0.1 (≈ 0.0617 µM) |  |  |  |  |  |  |  |  |
| CCCCCOc1ccc(-c2ccc(-c3ccc(C(=O)N[C@@H]4C[C@@H](O)[C@@H](O)NC(=O)C5[C@@H](OC)[C@@H](OC)CN5C(=O)[C@H]([C@@H](C)O)NC(=O)[C@H]([C@H](O)[C@@H](O)c5ccc(O)cc5)NC(=O)[C@@H]5C[C@@H](O)CN5C(=O)[C@H]([C@@H](C)O)NC4=O)cc3)cc2)cc1 (some centres undefined) |  |  |  |  | 18 |  |  |  |  |  |  |  |  |  |

From ChEMBL document CHEMBL1134059, “Synthesis and antifungal activities of novel 1,3-beta-D-glucan synthase inhibitors. Part 2” (Bioorg Med Chem Lett, 2001)
